Data published in patent US9340590B2 (priority 2011, dated 2016).
Like-named read-outs stand apart in the source and are kept apart here. Positions of bridges follow the written chain, without caps; N, C: chain ends. Non-standard residues stand in square brackets, D forms with d. Residues, ends and D or L forms follow the SMILES beside them. 1Nal = N[C@@H](Cc1cccc2ccccc12)C(=O)O

Target: hNav1.7 (Homo sapiens, UniProt Q15858)
Experiment: cell-based
Format: cell-based
Details: read-out: IWQ Use Nav1.7

Chain of hNav1.7 (Q15858 whole entry, looked up): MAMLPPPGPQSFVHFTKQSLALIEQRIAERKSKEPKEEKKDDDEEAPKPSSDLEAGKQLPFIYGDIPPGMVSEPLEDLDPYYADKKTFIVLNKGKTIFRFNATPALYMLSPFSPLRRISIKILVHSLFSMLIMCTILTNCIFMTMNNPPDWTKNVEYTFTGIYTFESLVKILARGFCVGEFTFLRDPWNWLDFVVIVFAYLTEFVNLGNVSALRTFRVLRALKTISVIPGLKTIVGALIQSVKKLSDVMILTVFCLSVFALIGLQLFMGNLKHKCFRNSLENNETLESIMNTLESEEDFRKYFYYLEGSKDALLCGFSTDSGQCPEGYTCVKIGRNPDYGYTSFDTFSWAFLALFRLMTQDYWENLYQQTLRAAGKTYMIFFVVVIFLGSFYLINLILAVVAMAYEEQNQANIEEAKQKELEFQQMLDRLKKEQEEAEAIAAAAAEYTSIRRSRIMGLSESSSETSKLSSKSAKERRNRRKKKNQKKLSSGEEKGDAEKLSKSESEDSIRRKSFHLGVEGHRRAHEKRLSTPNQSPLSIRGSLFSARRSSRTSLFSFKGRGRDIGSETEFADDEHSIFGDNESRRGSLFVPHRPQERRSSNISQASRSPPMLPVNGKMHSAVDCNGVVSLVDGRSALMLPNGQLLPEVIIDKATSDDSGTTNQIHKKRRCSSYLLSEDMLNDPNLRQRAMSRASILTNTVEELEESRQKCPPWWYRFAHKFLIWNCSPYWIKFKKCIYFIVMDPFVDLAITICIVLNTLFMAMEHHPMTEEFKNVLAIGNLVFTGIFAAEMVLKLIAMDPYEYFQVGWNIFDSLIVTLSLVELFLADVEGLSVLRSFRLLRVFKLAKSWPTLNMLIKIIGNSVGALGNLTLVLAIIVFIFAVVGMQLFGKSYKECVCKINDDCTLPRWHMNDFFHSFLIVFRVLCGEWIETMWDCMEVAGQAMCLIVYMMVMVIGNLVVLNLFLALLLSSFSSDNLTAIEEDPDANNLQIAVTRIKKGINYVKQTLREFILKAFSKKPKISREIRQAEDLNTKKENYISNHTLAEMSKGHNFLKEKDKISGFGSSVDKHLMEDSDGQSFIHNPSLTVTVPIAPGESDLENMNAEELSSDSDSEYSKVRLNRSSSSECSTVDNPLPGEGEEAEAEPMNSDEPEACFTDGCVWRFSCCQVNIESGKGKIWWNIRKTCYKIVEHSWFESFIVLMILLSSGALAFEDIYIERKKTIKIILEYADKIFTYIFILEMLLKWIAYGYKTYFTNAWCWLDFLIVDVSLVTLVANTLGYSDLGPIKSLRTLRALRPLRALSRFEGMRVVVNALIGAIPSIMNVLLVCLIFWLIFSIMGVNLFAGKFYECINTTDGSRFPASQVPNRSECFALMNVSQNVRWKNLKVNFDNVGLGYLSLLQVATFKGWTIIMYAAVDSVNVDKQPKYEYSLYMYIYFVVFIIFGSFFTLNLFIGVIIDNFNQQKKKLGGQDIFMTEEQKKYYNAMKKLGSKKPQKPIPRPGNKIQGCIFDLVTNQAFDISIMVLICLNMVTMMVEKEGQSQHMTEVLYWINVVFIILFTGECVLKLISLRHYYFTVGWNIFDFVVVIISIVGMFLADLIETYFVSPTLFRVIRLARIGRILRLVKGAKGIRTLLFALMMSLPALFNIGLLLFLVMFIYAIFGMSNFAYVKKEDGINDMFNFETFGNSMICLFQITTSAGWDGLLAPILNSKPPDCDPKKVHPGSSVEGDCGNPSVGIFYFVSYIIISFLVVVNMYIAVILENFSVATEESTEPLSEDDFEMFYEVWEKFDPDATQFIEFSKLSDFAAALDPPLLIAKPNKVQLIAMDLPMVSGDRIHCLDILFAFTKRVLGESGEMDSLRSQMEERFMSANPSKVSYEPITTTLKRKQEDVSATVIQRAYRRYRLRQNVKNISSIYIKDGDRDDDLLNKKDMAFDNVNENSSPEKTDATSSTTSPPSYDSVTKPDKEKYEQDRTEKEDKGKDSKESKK

Row | Structure (SMILES) | IC50 (IonWorks Quattro, Use) [nM] | other results
1 | CC[C@H](C)[C@@H]1NC(=O)[C@@H]2CSSC[C@@H]3NC(=O)[C@H](C(C)C)NC(=O)[C@H](CC(C)C)NC(=O)[C@H](CC(N)=O)NC(=O)[C@@H]4CCCN4C(=O)[C@H](CCCNC(=N)N)NC(=O)[C@H](CSSC[C@H](NC(=O)[C@@H](N)CC(=O)O)C(=O)N[C@@H](CC(C)C)C(=O)NCC(=O)N[C@@H](Cc4ccccc4)C(=O)N[C@@H](CCSC)C(=O)N[C@@H](CCCNC(=N)N)C(=O)N[C@@H](CCCCN)C(=O)N2)NC(=O)[C@H](CSSC[C@@H](C(=O)N[C@@H](CCCCN)C(=O)N[C@@H](Cc2ccc(O)cc2)C(=O)N[C@H](C(=O)N[C@@H](Cc2ccccc2)C(N)=O)C(C)C)NC(=O)[C@H](Cc2c[nH]c4ccccc24)NC(=O)[C@H](CCCCN)NC(=O)[C@H](Cc2c[nH]cn2)NC(=O)[C@H]([C@@H](C)O)NC(=O)[C@H](CCCNC(=N)N)NC(=O)[C@H](C)NC3=O)NC(=O)[C@H](CCCCN)NC(=O)[C@H](CC(=O)O)NC(=O)[C@H](CC(N)=O)NC(=O)[C@H](CC(=O)O)NC(=O)[C@@H]2CCCN2C1=O [compound 142] (H-DCLGFMRKCIPDNDKCCRPNLVCARTHKWCKYVF-NH2; disulfide 2-17, 9-23, 16-30) | 470 | 
2 | CC[C@H](C)[C@@H]1NC(=O)[C@@H]2CSSC[C@@H]3NC(=O)[C@H](C(C)C)NC(=O)[C@H](CC(C)C)NC(=O)[C@H](CC(N)=O)NC(=O)[C@@H]4CCCN4C(=O)[C@H](CCC(=O)O)NC(=O)[C@H](CSSC[C@H](NC(=O)[C@@H](N)CC(=O)O)C(=O)N[C@@H](CC(C)C)C(=O)NCC(=O)N[C@@H](Cc4ccccc4)C(=O)N[C@@H](CCSC)C(=O)N[C@@H](CCCNC(=N)N)C(=O)N[C@@H](CCCCN)C(=O)N2)NC(=O)[C@H](CSSC[C@@H](C(=O)N[C@@H](CCCCN)C(=O)N[C@@H](Cc2ccc(O)cc2)C(=O)N[C@H](C(=O)N[C@@H](Cc2ccccc2)C(N)=O)C(C)C)NC(=O)[C@H](Cc2c[nH]c4ccccc24)NC(=O)[C@H](CCCCN)NC(=O)[C@H](Cc2c[nH]cn2)NC(=O)[C@H]([C@@H](C)O)NC(=O)[C@H](CCCNC(=N)N)NC(=O)[C@H](CO)NC3=O)NC(=O)[C@H](CCCCN)NC(=O)[C@H](CC(=O)O)NC(=O)[C@H](CC(N)=O)NC(=O)[C@H](CC(=O)O)NC(=O)[C@@H]2CCCN2C1=O [compound 148] (H-DCLGFMRKCIPDNDKCCEPNLVCSRTHKWCKYVF-NH2; disulfide 2-17, 9-23, 16-30) |  | IC50: 220 nM
3 | CC[C@H](C)[C@@H]1NC(=O)[C@@H]2CSSC[C@@H]3NC(=O)[C@H](C(C)C)NC(=O)[C@H](CC(C)C)NC(=O)[C@H](CC(N)=O)NC(=O)[C@H](CCCNC(=N)N)NC(=O)[C@H](CCCNC(=N)N)NC(=O)[C@H](CSSC[C@H](NC(=O)[C@@H](N)CC(=O)O)C(=O)N[C@@H](CC(C)C)C(=O)NCC(=O)N[C@@H](Cc4ccccc4)C(=O)N[C@@H](CCSC)C(=O)N[C@@H](CCCNC(=N)N)C(=O)N[C@@H](CCCCN)C(=O)N2)NC(=O)[C@H](CSSC[C@@H](C(=O)N[C@@H](CCCCN)C(=O)N[C@@H](Cc2ccc(O)cc2)C(=O)N[C@H](C(=O)N[C@@H](Cc2ccccc2)C(N)=O)C(C)C)NC(=O)[C@H](Cc2c[nH]c4ccccc24)NC(=O)[C@H](CCCCN)NC(=O)[C@H](Cc2c[nH]cn2)NC(=O)[C@H]([C@@H](C)O)NC(=O)[C@H](CCCNC(=N)N)NC(=O)[C@H](CO)NC3=O)NC(=O)[C@H](CCCCN)NC(=O)[C@H](CC(=O)O)NC(=O)[C@H](CC(N)=O)NC(=O)[C@H](CC(=O)O)NC(=O)[C@@H]2CCCN2C1=O [compound 157] (H-DCLGFMRKCIPDNDKCCRRNLVCSRTHKWCKYVF-NH2; disulfide 2-17, 9-23, 16-30) | 70 | 
4 | CC[C@H](C)[C@@H]1NC(=O)[C@@H]2CSSC[C@@H]3NC(=O)[C@H](CCCNC(=N)N)NC(=O)[C@H](CC(C)C)NC(=O)[C@H](CC(N)=O)NC(=O)[C@@H]4CCCN4C(=O)[C@H](CCCNC(=N)N)NC(=O)[C@H](CSSC[C@H](NC(=O)[C@@H](N)CC(=O)O)C(=O)N[C@@H](CC(C)C)C(=O)NCC(=O)N[C@@H](Cc4ccccc4)C(=O)N[C@@H](CCSC)C(=O)N[C@@H](CCCNC(=N)N)C(=O)N[C@@H](CCCCN)C(=O)N2)NC(=O)[C@H](CSSC[C@@H](C(=O)N[C@@H](CCCCN)C(=O)N[C@@H](Cc2ccc(O)cc2)C(=O)N[C@H](C(=O)N[C@@H](Cc2ccccc2)C(N)=O)C(C)C)NC(=O)[C@H](Cc2c[nH]c4ccccc24)NC(=O)[C@H](CCCCN)NC(=O)[C@H](Cc2c[nH]cn2)NC(=O)[C@H]([C@@H](C)O)NC(=O)[C@H](CCCNC(=N)N)NC(=O)[C@H](CO)NC3=O)NC(=O)[C@H](CCCCN)NC(=O)[C@H](CC(=O)O)NC(=O)[C@H](CC(N)=O)NC(=O)[C@H](CC(=O)O)NC(=O)[C@@H]2CCCN2C1=O [compound 158] (H-DCLGFMRKCIPDNDKCCRPNLRCSRTHKWCKYVF-NH2; disulfide 2-17, 9-23, 16-30) | 60 | 
5 | CC[C@H](C)[C@@H]1NC(=O)[C@@H]2CSSC[C@@H]3NC(=O)[C@H](C(C)C)NC(=O)[C@H](CC(C)C)NC(=O)[C@H](CC(N)=O)NC(=O)[C@@H]4CCCN4C(=O)[C@H](CCCNC(=N)N)NC(=O)[C@H](CSSC[C@H](NC(=O)[C@@H](N)CC(=O)O)C(=O)N[C@@H](CC(C)C)C(=O)NCC(=O)N[C@@H](Cc4ccccc4)C(=O)N[C@@H](CCSC)C(=O)N[C@@H](CCCNC(=N)N)C(=O)N[C@@H](CCCCN)C(=O)N2)NC(=O)[C@H](CSSC[C@@H](C(=O)N[C@@H](CCCCN)C(=O)N[C@@H](CCCNC(=N)N)C(=O)N[C@H](C(=O)N[C@@H](Cc2ccccc2)C(N)=O)C(C)C)NC(=O)[C@H](Cc2c[nH]c4ccccc24)NC(=O)[C@H](CCCCN)NC(=O)[C@H](Cc2c[nH]cn2)NC(=O)[C@H]([C@@H](C)O)NC(=O)[C@H](CCCNC(=N)N)NC(=O)[C@H](CO)NC3=O)NC(=O)[C@H](CCCCN)NC(=O)[C@H](CC(=O)O)NC(=O)[C@H](CC(N)=O)NC(=O)[C@H](CC(=O)O)NC(=O)[C@@H]2CCCN2C1=O [compound 159] (H-DCLGFMRKCIPDNDKCCRPNLVCSRTHKWCKRVF-NH2; disulfide 2-17, 9-23, 16-30) |  | IC50: 1020 nM
6 | CC[C@H](C)[C@@H]1NC(=O)[C@@H]2CSSC[C@@H]3NC(=O)[C@H](C(C)C)NC(=O)[C@H](CC(C)C)NC(=O)[C@H](CC(N)=O)NC(=O)[C@@H]4CCCN4C(=O)[C@H](CCCNC(=N)N)NC(=O)[C@H](CSSC[C@H](NC(=O)[C@@H](N)CC(=O)O)C(=O)N[C@@H](CC(C)C)C(=O)NCC(=O)N[C@@H](Cc4ccccc4)C(=O)N[C@@H](CCSC)C(=O)N[C@@H](CCCNC(=N)N)C(=O)N[C@@H](CCCCN)C(=O)N2)NC(=O)[C@H](CSSC[C@@H](C(=O)N[C@@H](CCCCN)C(=O)N[C@@H](Cc2cccc4ccccc24)C(=O)N[C@H](C(=O)N[C@@H](Cc2ccccc2)C(N)=O)C(C)C)NC(=O)[C@H](Cc2c[nH]c4ccccc24)NC(=O)[C@H](CCCCN)NC(=O)[C@H](Cc2c[nH]cn2)NC(=O)[C@H]([C@@H](C)O)NC(=O)[C@H](CCCNC(=N)N)NC(=O)[C@H](CO)NC3=O)NC(=O)[C@H](CCCCN)NC(=O)[C@H](CC(=O)O)NC(=O)[C@H](CC(N)=O)NC(=O)[C@H](CC(=O)O)NC(=O)[C@@H]2CCCN2C1=O [compound 167] (H-DCLGFMRKCIPDNDKCCRPNLVCSRTHKWCK[1Nal]VF-NH2; disulfide 2-17, 9-23, 16-30) |  | IC50 (Table 25, IonWorks Quattro, use, […]): 4 nM
7 | CSCC[C@@H]1NC(=O)[C@H](Cc2ccccc2)NC(=O)CNC(=O)[C@H](CC(C)C)NC(=O)[C@@H](NC(=O)[C@@H](N)CC(=O)O)CSSC[C@@H]2NC(=O)[C@@H]3CSSC[C@@H](C(=O)N[C@@H](CCCCN)C(=O)N[C@@H](Cc4ccc(O)cc4)C(=O)N[C@H](C(=O)N[C@@H](Cc4ccccc4)C(N)=O)C(C)C)NC(=O)[C@H](Cc4c[nH]c5ccccc45)NC(=O)[C@H](CCCCN)NC(=O)[C@H](Cc4c[nH]cn4)NC(=O)[C@H]([C@@H](C)O)NC(=O)[C@H](CCCNC(=N)N)NC(=O)[C@H](CO)NC(=O)[C@H](CSSC[C@H](NC(=O)[C@H](CCCCN)NC(=O)[C@H](CCCNC(=N)N)NC1=O)C(=O)N[C@@H](Cc1ccc(O)cc1)C(=O)N1CCC[C@H]1C(=O)N[C@@H](CC(=O)O)C(=O)N[C@@H](CC(N)=O)C(=O)N[C@@H](CC(=O)O)C(=O)N[C@@H](CCCCN)C(=O)N3)NC(=O)[C@H](C(C)C)NC(=O)[C@H](CC(C)C)NC(=O)[C@H](CC(N)=O)NC(=O)[C@@H]1CCCN1C(=O)[C@H](CCCNC(=N)N)NC2=O [compound 299] (H-DCLGFMRKCYPDNDKCCRPNLVCSRTHKWCKYVF-NH2; disulfide 2-17, 9-23, 16-30) | 140 | 
8 | CSCC[C@@H]1NC(=O)[C@H](Cc2ccccc2)NC(=O)CNC(=O)[C@H](CC(C)C)NC(=O)[C@@H](NC(=O)[C@@H](N)CC(=O)O)CSSC[C@@H]2NC(=O)[C@@H]3CSSC[C@@H](C(=O)N[C@@H](CCCCN)C(=O)N[C@@H](Cc4ccc(O)cc4)C(=O)N[C@H](C(=O)N[C@@H](Cc4ccccc4)C(N)=O)C(C)C)NC(=O)[C@H](Cc4c[nH]c5ccccc45)NC(=O)[C@H](CCCCN)NC(=O)[C@H](Cc4c[nH]cn4)NC(=O)[C@H]([C@@H](C)O)NC(=O)[C@H](CCCNC(=N)N)NC(=O)[C@H](CO)NC(=O)[C@H](CSSC[C@H](NC(=O)[C@H](CCCCN)NC(=O)[C@H](CCCNC(=N)N)NC1=O)C(=O)N[C@@H](C(C)C)C(=O)N1CCC[C@H]1C(=O)N[C@@H](CC(=O)O)C(=O)N[C@@H](CC(N)=O)C(=O)N[C@@H](CC(=O)O)C(=O)N[C@@H](CCCCN)C(=O)N3)NC(=O)[C@H](C(C)C)NC(=O)[C@H](CC(C)C)NC(=O)[C@H](CC(N)=O)NC(=O)[C@@H]1CCCN1C(=O)[C@H](CCCNC(=N)N)NC2=O [compound 301] (H-DCLGFMRKCVPDNDKCCRPNLVCSRTHKWCKYVF-NH2; disulfide 2-17, 9-23, 16-30) | 100 | 
